System: ATDC5 cells
Assay: Chondrogenesis activity assay in ATDC5 cells (collagen type II induction, immunofluorescence)
Type: cell-based, mouse
Conditions: Mus musculus; for EC50: collagen type II induction in ATDC5 cells, concentration reaching 50% of maximum induction; for Emax: maximum percent induction of collagen type II relative to internal reference compound at 10 μM, ATDC5 cells
Procedure: A) Chondrogenesis Activity Assay in ATDC5 Cells
The chondrogenic potential of the compounds of the invention was determined using clonal mouse chondrogenic ATDC5 cells (T. Atsumi et al., Cell Differ. Dev. 1990, 30, 109-116). ATDC5 cells are derived from mouse embryonic AT805 teratocarcinoma cells and are used frequently to study the multistep chondrogenic differentiation process from precursor cells into chondrocytes (C. Shukunami et al., Exp. Cell Res. 1998, 241, 1-11; H. Aklyami et al., J. Bone Miner. Res. 1996, 11, 22-28; H. Akiyami et al., Biochem. Biophys. Res. Commun. 1997, 235, 142-147; C. Shukunami et al., J. Cell Biol. 1996, 133, 457-468; C. Shukunami et al., J. Bone Miner. Res. 1997, 12, 1174-1188). Undifferentiated ATDC5 cells grow in vitro until confluence, showing a fibroblast-like morphology. In the presence of insulin, cells undergo transient condensation and form numerous nodular structures (cartilage nodules). The cartilagenous nature of these nodules was shown by Alcian Blue staining as evidence of the production of proteoglycan (aggrecan) and collagen type II expression (by expression analysis), both molecular markers of chondrocytes (C. Shukunami et al., J. Cell Biol. 1996, 133, 457-468).
Chondrogenic differentiation of ATDC5 cells into chondrocytes by the compounds of the invention was determined by measuring the induction of type II collagen protein as a marker of chondrocytes, a structural component of the extracellular matrix which constitutes more than 80% of cartilage mass (D. R. Eyre, Clin. Orthop. Relat. Res. 2004, 427 Suppl, S118-S122). ATDC5 cells were obtained from RIKEN and cultured as monolayer in basal culture medium (Dulbecco's Modified Eagle Medium/Nutrient Mixture F-12 (DMEM/F12, Invitrogen, #31331-093) supplemented with 10 μg/ml Transferrin (Roche, #10652 202001), 3×10E−8 M sodium seienite (Sigma, #S-5261) and 5% Fetal Calf Serum (FCS Gold, PAA, #A15-251)), at 37° C., and 5% CO2 in plastic flasks of 75 cm^2 or 300 cm^2 subconfluently for propagation. ATDC5 cells were harvested and resuspended in differentiation culture medium that consisted of basal culture medium complemented with 10 μg/ml insulin (Sigma, #19278), to initiate chondrogenic differentiation. For studying the effect of test compounds, the ATDC5 cells were plated in 96-well plates (3.0×10E4 cells per well in 200 μl of differentiation culture medium). Test compounds dissolved in DMSO were added to yield increasing compound concentrations, typically from 40 nM to 10 μM, and a final DMSO concentration of 0.1%. On each 96-well plate, control wells containing no test compound but the same concentration of DMSO, i.e. untreated cells, were included and used as reference for the determination of the effect of the test compounds on the cells, and wells containing an internal reference compound at a concentration of 10 μM were included and used as positive control and for standardizing the results. Cells in the wells were incubated for 4 days at 37° C., and 5% CO2, followed by quantification of intracellular collagen type II.
Quantification of collagen type II in the ATDC5-cells was done by immunofluorescence staining of collagen type II, and fluorescence intensity was measured using a cellular high content imaging system (ImageXpress, Molecular Device). For immunofluorescence staining of intracellular collagen, medium was removed after compound incubation and cells were fixed with 200 μl/well methanol/water (95%/5%). Cells were permeabilized in 200 μl/well phosphate-buffered saline (PBS) containing 0.2% Triton X100 for 15 min and, after removal of the solution, blocked for 30 min with 200 μl/well PBS/0.2% Triton X100 containing 1% bovine serum albumin (BSA) to avoid unspecific binding. After the blocking step, the solution was removed and collagen type II staining solution was added. […]

Row | SMILES | EC50 [nM] | Emax [%]
1 | CCn1c2cnccc2c2cc(Cl)cc(-c3cccnc3)c21 [Example 1, 6-Chloro-9-ethyl-8-pyridin-3-yl-9H-pyrido[3,4-b]indole] | 1700 | < 20
2 | CC#CCn1c2cnccc2c2cc(Cl)cc(-c3ccc(Cl)nc3Cl)c21 [Example 3, 9-(But-2-ynyl)-6-chloro-8-(2,6-dichloropyridin-3-yl)-9H-pyrido[3,4-b]indole] | > 10000 | 20 to 50
3 | N#CCn1c2cnccc2c2cc(Cl)cc(-c3ccc(Cl)nc3Cl)c21 [Example 4, 2-(6-Chloro-8-(2,6-dichloropyridin-3-yl)-9H-pyrido[3,4-b]indol-9-yl)acetonitrile] | 830 | > 80
4 | CCn1c2c(-c3ccn(Cc4cccnc4C)n3)cc(Cl)cc2c2ccnc(C)c21 [Example 6, 6-Chloro-9-ethyl-1-methyl-8-[1-(2-methyl-pyridin-3-ylmethyl)-1H-pyrazol-3-yl]-9H-pyrido[3,4-b]indole] | 2200 | 50 to 80
5 | CCn1c2c(-c3ccnn3Cc3cccnc3C)cc(Cl)cc2c2ccnc(C)c21 [Example 7, 6-Chloro-9-ethyl-1-methyl-8-[2-(2-methyl-pyridin-3-ylmethyl)-2H-pyrazol-3-yl]-9H-pyrido[3,4-b]indole] | > 3300 | < 20
6 | CCn1c2c(-c3cc(C)nn3C)cc(Cl)cc2c2ccnc(C)c21 [Example 9, 6-Chloro-8-(2,5-dimethyl-2H-pyrazol-3-yl)-9-ethyl-1-methyl-9H-pyrido[3,4-b]indole] | 1400 | > 80
7 | CC(C)(C)OC(=O)n1cc(-c2cc(Cl)cc3c4ccncc4n(CC(F)(F)F)c23)cn1 [Example 12, tert-Butyl 4-(6-chloro-9-(2,2,2-trifluoroethyl)-9H-pyrido[3,4-b]indol-8-yl)-1H-pyrazole-1-carboxylate] | > 10000 | 20 to 50
8 | COc1ccc(-c2cc(C)cc3c2[nH]c2c(C)nccc23)cc1 [Example 14, 8-(4-Methoxy-phenyl)-1,6-dimethyl-9H-pyrido[3,4-b]indole] | 860 | > 80
9 | CCn1c2c(-c3cnn(C)c3)cc(C)cc2c2ccnc(C)c21 [Example 15, 9-Ethyl-1,6-dimethyl-8-(1-methyl-1H-pyrazol-4-yl)-9H-pyrido[3,4-b]indole] | 1000 | 50 to 80
10 | Cc1cc2c([nH]c3c(-c4ccc(OCCn5cccn5)cc4)cc(Br)cc32)c(C)n1 [Example 16, 6-Bromo-1,3-dimethyl-8-[4-(2-pyrazol-1-yl-ethoxy)-phenyl]-9H-pyrido[3,4-b]indole] | 2800 | 50 to 80
11 | CCn1c2c(-c3ccc(OC)c(N)n3)cc(Cl)cc2c2ccnc(C)c21 [Example 17, 6-(6-Chloro-9-ethyl-1-methyl-9H-pyrido[3,4-b]indol-8-yl)-3-methoxy-pyridin-2-ylamine] | 3600 | > 80
12 | CCn1c2c(-c3cc(-c4ccccc4)no3)cc(Cl)cc2c2ccnc(C)c21 [Example 18, 6-Chloro-9-ethyl-1-methyl-8-[3-phenyl-isoxazol-5-yl)-9H-pyrido[3,4-b]indole] | 1000 | > 80
13 | CCn1c2c(-c3ccn(C)n3)cc(Cl)cc2c2ccnc(C)c21 [Example 20, 6-Chloro-9-ethyl-1-methyl-8-(1-methyl-1H-pyrazol-3-yl)-9H-pyrido[3,4-b]indole] | 3900 | 50 to 80
14 | Cc1nccc2c1[nH]c1c(-c3ccc4c(c3)CC(C)O4)cc(Cl)cc12 (centres unmarked) [Example 23, 6-Chloro-1-methyl-8-(2-methyl-2,3-dihydro-benzofuran-5-yl)-9H-pyrido[3,4-b]indole] | 1600 | 50 to 80
15 | Cc1nccc2c1[nH]c1c(-c3ccc(C(O)c4ccccc4)cc3)cc(Cl)cc12 (centres unmarked) [Example 24, [4-(6-Chloro-1-methyl-9H-pyrido[3,4-b]indol-8-yl)-phenyl]-phenyl-methanol] | 2000 | 50 to 80
16 | Cc1nccc2c3cc(Cl)cc(-c4cnn(C)c4)c3n(C)c12 [Example 25, 6-Chloro-1,9-dimethyl-8-(1-methyl-1H-pyrazol-4-yl)-9H-pyrido[3,4-b]indole] | 170 | > 80
17 | CCn1c2c(-c3ccc(OCCN(C(C)C)C(C)C)cc3)cc(Cl)cc2c2ccnc(C)c21 [Example 26, (2-[4-(6-Chloro-9-ethyl-1-methyl-9H-pyrido[3,4-b]indol-8-yl)-phenoxy]-ethyl)-diisopropyl-amine] | 530 | 50 to 80
18 | CCn1c2c(-c3ccc(OCCN4CCOCC4)cc3)cc(Cl)cc2c2ccnc(C)c21 [Example 28, 6-Chloro-9-ethyl-1-methyl-8-[4-(2-morpholin-4-yl-ethoxy)-phenyl]-9H-pyrido[3,4-b]indole] | 190 | > 80
19 | CCn1c2c(-c3ccc(CN4CCOCC4)cc3)cc(Cl)cc2c2ccnc(C)c21 [Example 30, 6-Chloro-9-ethyl-1-methyl-8-(4-morpholin-4-ylmethyl-phenyl)-9H-pyrido[3,4-b]indole] | 270 | > 80
20 | Cc1nccc2c1[nH]c1c(-c3ccc(C=O)cc3)cc(Cl)cc12 [Example 31, 4-(6-Chloro-1-methyl-9H-pyrido[3,4-b]indol-8-yl)-benzaldehyde] | 250 | > 80
21 | Cc1nccc2c1[nH]c1c(-c3ccc(C(O)c4ccccn4)cc3)cc(Cl)cc12 (centres unmarked) [Example 32, [4-(6-Chloro-1-methyl-9H-pyrido[3,4-b]indol-8-yl)-phenyl]-pyridin-2-yl-methanol] | 370 | 50 to 80
22 | COc1ccc(-c2cc(C(=O)O)cc3c2[nH]c2c(C)nccc23)cc1 [Example 35, 8-(4-Methoxy-phenyl)-1-methyl-9H-pyrido[3,4-b]indole-6-carboxylic acid] | 3100 | > 80
23 | COc1ccc(-c2cc(C(N)=O)cc3c2[nH]c2c(C)nccc23)cc1 [Example 36, 8-(4-Methoxy-phenyl)-1-methyl-9H-pyrido[3,4-b]indole-6-carboxamide] | 100 | > 80
24 | CCn1c2c(-c3cnn(Cc4ccc5ccccc5n4)c3)cc(Br)cc2c2ccnc(C)c21 [Example 38, 6-Bromo-9-ethyl-1-methyl-8-(1-quinolin-2-ylmethyl-1H-pyrazol-4-yl)-9H-pyrido[3,4-b]indole] | 2600 | 50 to 80
25 | Cc1nccc2c1[nH]c1c(-c3ccc(OCC4COCCO4)cc3)cc(Cl)cc12 (centres unmarked) [Example 40, 6-Chloro-8-[4-([1,4]dioxan-2-ylmethoxy)-phenyl]-1-methyl-9H-pyrido[3,4-b]indole] | 160 | > 80
26 | Cc1nccc2c1[nH]c1c(-c3ccc(OCc4ncc5ccccc5n4)cc3)cc(Cl)cc12 [Example 41, 6-Chloro-1-methyl-8-[4-(quinazolin-2-ylmethoxy)-phenyl]-9H-pyrido[3,4-b]indole] | 240 | 50 to 80
27 | Cc1nccc2c1[nH]c1c(-c3ccc(OCCn4cc(Br)cn4)cc3)cc(Cl)cc12 [Example 42, 8-(4-[2-(4-Bromo-pyrazol-1-yl)-ethoxy]-phenyl)-6-chloro-1-methyl-9H-pyrido[3,4-b]indole] | 510 | 50 to 80
28 | Cc1nc(Br)cc2c1[nH]c1c(-c3ccc(OCCn4cc(Br)cn4)cc3)cc(Cl)cc12 [Example 43, 3-Bromo-8-(4-[2-(4-bromo-pyrazol-1-yl)-ethoxy]-phenyl)-6-chloro-1-methyl-9H-pyrido[3,4-b]indole] | > 6600 | < 20
